{"source": "BindingDB's records for doi:10.1016/j.bmcl.2006.05.060", "about": "(University of Kentucky, 2006)", "key": {"[1]": {"test": "Displacement of radiolabeled NalBzOH from kappa3 opioid receptor in Hartley guinea pig brain"}, "[2]": {"test": "Displacement of radiolabeled DPDPE-Cl from delta opioid receptor in Hartley guinea pig brain"}}, "data": [{"smiles": "C[C@@H](NC(=O)[C@@H](N)Cc1ccc(O)cc1)C(=O)NCC(=O)N(C)[C@@H](Cc1ccccc1)C(=O)NCCO", "note": "[[tyrosyl-3,5-3H(N)]-D-Ala2-Mephe4-glyol5-enkephalin]", "values": [{"measurement": "Ki", "setting": "[1]", "result": 27, "unit": "nM"}]}, {"smiles": "CC(=O)Oc1ccc2c3c1O[C@H]1[C@@H](OS(=O)(=O)O)C=C[C@H]4[C@@H](C2)N(C)CC[C@@]341", "note": "[M3A6S]", "values": [{"measurement": "Ki", "setting": "[1]", "result": 5.5, "unit": "nM"}, {"measurement": "Ki", "setting": "[2]", "result": 154, "unit": "nM"}]}, {"smiles": "CN1CC[C@]23c4c5ccc(OC(=O)c6ccccc6)c4O[C@H]2[C@@H](OS(=O)(=O)O)C=C[C@H]3[C@H]1C5", "note": "[M3B6S]", "values": [{"measurement": "Ki", "setting": "[1]", "result": 513, "unit": "nM"}, {"measurement": "Ki", "setting": "[2]", "result": 600, "unit": "nM"}]}, {"smiles": "C[N+]1(C)CC[C@]23c4c5ccc(OC(=O)c6ccccc6)c4O[C@H]2[C@@H](OS(=O)(=O)[O-])C=C[C@H]3[C@H]1C5", "note": "[MM3B6S]", "values": [{"measurement": "Ki", "setting": "[1]", "result": "> 10000", "unit": "nM"}, {"measurement": "Ki", "setting": "[2]", "result": "> 10000", "unit": "nM"}]}, {"smiles": "CC(C)C(=O)Oc1ccc2c3c1O[C@H]1[C@@H](OS(=O)(=O)O)C=C[C@H]4[C@@H](C2)N(C)CC[C@@]341", "note": "[M3IBu6S]", "values": [{"measurement": "Ki", "setting": "[1]", "result": 266, "unit": "nM"}, {"measurement": "Ki", "setting": "[2]", "result": 584, "unit": "nM"}]}, {"smiles": "COc1ccc2c3c1O[C@H]1[C@@H](OS(=O)(=O)O)C=C[C@H]4[C@@H](C2)N(C)CC[C@@]341", "note": "[C6S]", "values": [{"measurement": "Ki", "setting": "[1]", "result": 455, "unit": "nM"}, {"measurement": "Ki", "setting": "[2]", "result": 414, "unit": "nM"}]}, {"smiles": "CSCC[C@H](NC(=O)[C@H](Cc1ccccc1)NC(=O)CNC(=O)CNC(=O)[C@@H](N)Cc1ccc(O)cc1)C(=O)O", "note": "[2-[(S)-2-(2-{2-[(S)-2-Amino-3-(4-hydroxy-phenyl)-propionylamino]-acetylamino}-acetylamino)-1-oxo-3-phenyl-propylamino]-4-methylsulfanyl-butyric acid]", "values": [{"measurement": "Ki", "setting": "[1]", "result": 277, "unit": "nM"}]}, {"smiles": "C=CCN1CCC23c4c5ccc(O)c4O[C@@H]2C(=NNC(=O)c2ccccc2)CCC3(O)C1C5", "note": "(stereo not given in full)", "values": [{"measurement": "Ki", "setting": "[1]", "result": 0.3, "unit": "nM"}]}, {"smiles": "CC(=O)Oc1ccc2c3c1O[C@H]1[C@@H](OS(=O)(=O)[O-])C=C[C@H]4[C@@H](C2)[N+](C)(C)CC[C@@]341", "note": "[MM3A6S]", "values": [{"measurement": "Ki", "setting": "[1]", "result": 400, "unit": "nM"}, {"measurement": "Ki", "setting": "[2]", "result": 842, "unit": "nM"}]}, {"smiles": "CC1(C)SSC(C)(C)[C@@H](NC(=O)[C@@H](N)Cc2ccc(O)cc2)C(=O)NCC(=O)N[C@@H](Cc2ccc(Cl)cc2)C(=O)N[C@H]1C(=O)O", "note": "[(4S,7S,13S)-13-[(S)-2-Amino-3-(4-hydroxy-phenyl)-propionylamino]-7-(4-chloro-benzyl)-3,3,14,14-tetramethyl-6,9,12-trioxo-1,2-dithia-5,8,11-triaza-cyclotetradecane-4-carboxylic acid]", "values": [{"measurement": "Ki", "setting": "[1]", "result": 1030, "unit": "nM"}]}, {"smiles": "CN1CC[C@]23c4c5ccc(OS(=O)(=O)O)c4O[C@H]2[C@@H](O)C=C[C@H]3[C@H]1C5", "note": "[M3S]", "values": [{"measurement": "Ki", "setting": "[1]", "result": 1690, "unit": "nM"}, {"measurement": "Ki", "setting": "[2]", "result": "> 10000", "unit": "nM"}]}, {"smiles": "CN1CC[C@]23c4c5ccc(OC(=O)C(C)(C)C)c4O[C@H]2[C@@H](OS(=O)(=O)O)C=C[C@H]3[C@H]1C5", "note": "[M3P6S]", "values": [{"measurement": "Ki", "setting": "[1]", "result": 11, "unit": "nM"}, {"measurement": "Ki", "setting": "[2]", "result": 15, "unit": "nM"}]}, {"smiles": "CCC(=O)Oc1ccc2c3c1O[C@H]1[C@@H](OS(=O)(=O)O)C=C[C@H]4[C@@H](C2)N(C)CC[C@@]341", "note": "[M3Pr6S]", "values": [{"measurement": "Ki", "setting": "[1]", "result": 20, "unit": "nM"}, {"measurement": "Ki", "setting": "[2]", "result": 40, "unit": "nM"}]}, {"smiles": "CN1CC[C@]23c4c5ccc(O)c4O[C@H]2[C@@H](OS(=O)(=O)O)CC[C@H]3[C@H]1C5", "note": "[DM6S]", "values": [{"measurement": "Ki", "setting": "[1]", "result": 7, "unit": "nM"}, {"measurement": "Ki", "setting": "[2]", "result": 19, "unit": "nM"}]}, {"smiles": "CN1CC[C@]23c4c5ccc(OC(=O)c6ccccc6)c4O[C@H]2[C@@H](OS(=O)(=O)O)CC[C@H]3[C@H]1C5", "note": "[DM3B6S]", "values": [{"measurement": "Ki", "setting": "[2]", "result": 1600, "unit": "nM"}]}, {"smiles": "CC(=O)Oc1ccc2c3c1O[C@H]1[C@@H](OS(=O)(=O)O)CC[C@H]4[C@@H](C2)N(C)CC[C@@]341", "note": "[DM3A6S]", "values": [{"measurement": "Ki", "setting": "[2]", "result": 325, "unit": "nM"}]}, {"smiles": "CN1CC[C@]23c4c5ccc(O)c4O[C@H]2[C@@H](OS(=O)(=O)O)C=C[C@H]3[C@H]1C5", "note": "[M6S]", "values": [{"measurement": "Ki", "setting": "[1]", "result": 6.3, "unit": "nM"}, {"measurement": "Ki", "setting": "[2]", "result": 18, "unit": "nM"}]}, {"smiles": "COc1ccc2c3c1O[C@H]1[C@@H](OS(=O)(=O)O)CC[C@H]4[C@@H](C2)N(C)CC[C@@]341", "note": "[DC6S]", "values": [{"measurement": "Ki", "setting": "[1]", "result": 760, "unit": "nM"}, {"measurement": "Ki", "setting": "[2]", "result": 1150, "unit": "nM"}]}]}
